Source: publication PMC5820187 (Archives of toxicology, 2017)
Like-named read-outs stand apart in the source and are kept apart here.

Assays:
[1] = test system: embryonic zebrafish; conditions: for Bioactivity across the developmental toxicity assays (morphology, EPR, LPR): exposure 6-120 hpf
[2] = test system: CYP1A protein expression; conditions: zebrafish, in vivo
[3] = test system: embryonic zebrafish; assay: Embryonic photomotor response; assay type: in vivo; conditions: 24 hpf embryos; for EPR effect: any phase
[4] = test system: zebrafish larvae; assay: Larval photomotor response; assay type: in vivo; conditions: 120 hpf larvae; for LPR effect: at least one phase (light or dark)
[5] = static exposure 6-120 hpf, 0.1-50 μM, assessed at 24 and 120 hpf
[6] = hierarchical clustering of lowest effect levels, Fig 2

SMILES: O=C1C=Cc2ccccc2C1=O [1,2-naphthoquinone]
- Mortality and morphological effects (developmental toxicity endpoints, LELs) [1, 5]: effects on mortality or morphology

SMILES: O=C1C=CC(=O)c2cc3ccccc3cc21 [1,4-anthraquinone]
- Bioactivity across the developmental toxicity assays (morphology, EPR, LPR) ([1]; 0.1-50 μM): most toxic derivative tested
- Concentrations with increased mortality ([1]; static exposure 6-120 hpf): below 10 μM

SMILES: Oc1cccc2c(O)cccc12 [1,5-dihydroxynaphthalene]
- Mortality and morphological effects (developmental toxicity endpoints, LELs) [1, 5]: effects on mortality or morphology

SMILES: Cc1cccc2c(C)cccc12 [1,5-dimethylnaphthalene]
- Tissue Type expressing CYP1A [2]: Liver

SMILES: Oc1cccc2ccccc12 [1-hydroxynaphthalene]
- Mortality and morphological effects (developmental toxicity endpoints, LELs) ([1]; zebrafish, in vivo): effects on mortality or morphology

SMILES: Oc1cc2ccccc2cc1O [2,3-dihydroxynaphthalene]
- EPR effect [3]: significant effects on EPR

SMILES: Cc1ccc2cc(C)ccc2c1 [2,6-dimethylnaphthalene]
- LPR effect [4]: All derivatives except 2,6-dimethylnaphthalene had LPR effects in at least one phase

SMILES: CCc1ccc2c(c1)C(=O)c1ccccc1C2=O [2-ethylanthraquinone]
- Tissue Type expressing CYP1A [2]: Yolk
- Mortality and morphological effects (developmental toxicity endpoints, LELs) ([1]; zebrafish, in vivo): increased mortality
- Number of developmental endpoints affected ([1]; zebrafish, in vivo): 15
- LPR effect [4]: every derivative except 2-nitroanthracene and 2-ethylanthraquinone affected LPR behavior

SMILES: Oc1ccc2ccccc2c1 [2-hydroxynaphthalene]
- Mortality and morphological effects (developmental toxicity endpoints, LELs) ([1]; zebrafish, in vivo): effects on mortality or morphology

SMILES: O=[N+]([O-])c1ccc2cc3ccccc3cc2c1 [2-nitroanthracene]
- LPR effect [4]: every derivative except 2-nitroanthracene and 2-ethylanthraquinone affected LPR behavior

SMILES: O=[N+]([O-])c1cc2ccc3cccc4ccc(c1)c2c34 [2-nitropyrene]
- Bioactivity across the developmental toxicity assays (morphology, EPR, LPR) ([1]; 0.1-50 μM): only the cumulative ‘any’ endpoints

SMILES: Cc1ccc2ccc3ccc(C)cc3c2c1 [3,6-dimethylphenanthrene]
- EPR effect [3]: hypoactivity
- LPR effect in the light phase [4]: effects on LPR in the light

SMILES: c1ccc2cc3ccccc3cc2c1 [Anthracene]
- Mortality and morphological effects (developmental toxicity endpoints, LELs) [1, 5]: no observed morphology effects

SMILES: O=C1c2ccccc2C(=O)c2ccccc21 [Anthraquinone]
- Mortality and morphological effects (developmental toxicity endpoints, LELs) [1, 5]: did not cause morphological effects

SMILES: c1ccc2cc3c4ccccc4c4ccccc4c3cc2c1 [Dibenz[a,c]anthracene]
- Developmental toxicity profile group [1, 6]: Groups 1 and 2

SMILES: c1ccc2c(c1)cc1ccc3c4ccccc4cc4ccc2c1c43 [Dibenzo[a,h]pyrene]
- EPR effect in the Refractory period [3]: hypoactive response

SMILES: c1ccc2c(c1)cc1ccc3cc4ccccc4c4ccc2c1c34 [Dibenzo[a,i]pyrene]
- Mortality and morphological effects (developmental toxicity endpoints, LELs) [1, 5]: no observed morphology effects

SMILES: c1ccc2c(c1)cc1ccc3cccc4c5ccccc5c2c1c34 [Dibenzo[a,l]pyrene]
- Developmental toxicity profile group [1, 6]: Groups 1 and 2

SMILES: c1ccc2c(c1)oc1ccccc12 [Dibenzofuran]
- Tissue Type expressing CYP1A [2]: Vasculature

SMILES: c1ccc2c(c1)-c1cccc3cccc-2c13 [Fluoranthene]
- Tissue Type expressing CYP1A [2]: Vasculature, Yolk

SMILES: c1ccc2[nH]ccc2c1 [Indole]
- Tissue Type expressing CYP1A [2]: Yolk

SMILES: c1ccc2ccccc2c1 [Naphthalene]
- LPR effect in the dark phase [4]: hyperactivity
- LPR effect in the light phase [4]: hyperactivity

SMILES: c1ccc2c(c1)ccc1ccccc12 [Phenanthrene]
- EPR effect [3]: did not induce mortality or morphology changes, EPR effects
- LPR effect in the light phase [4]: hyperactivity

SMILES: c1cc2ccc3cccc4ccc(c1)c2c34 [Pyrene]
- LPR effect [4]: significant LPR effects

SMILES: c1ccc2ncccc2c1 [Quinoline]
- EPR effect [3]: only had an observed effect on EPR
- Developmental toxicity profile group ([1]; zebrafish, in vivo): Group 5

SMILES: Cc1cccc2c1ccc1cc(C(C)C)ccc12 [Retene]
- Tissue Type expressing CYP1A [2]: Vasculature
